Values of other authors, collected in patent US20140302178A1, “Natural Product for Decreasing Symptoms During Viral Infections” (priority 2013, published 2014).

System: Herpes Simplex Virus (HSV)
Details: oral antiviral therapy; pooled meta-analysis
In the case of `Nc1nc2c(ncn2COCCO)c(=O)[nH]1` [aciclovir], the “decrease of outbreak duration and the associated pain” value (shortened to “decrease”) is given as 1 days.
For `CC(=O)OCC(CCn1cnc2cnc(N)nc21)COC(C)=O` [famciclovir], the “decrease” value is listed as 1 days.
For `CC(C)[C@H](N)C(=O)OCCOCn1cnc2c(=O)[nH]c(N)nc21` [valaciclovir], the “decrease” value is listed as 1 days.
